Assay results: US20080207594A1, “Use of Gsk-3 Inhibitors for Preventing and Treating Pancreatic Autoimmune Disorders” (Davelogen Aktiengesellschaft, priority 2005, published 2008)
“Also recorded” adds a separate entry of the source.

Columns and labels:
[1] = test system: Pax4; assay: Pax4 transcription in rat islets, quantitative RT-PCR; format: cell-based
Source text: The response of the Pax4 gene to two compounds was investigated in rat islets. […] No effects were observed on the expression levels of cyclophilin B and RNA polymerase II largest subunit (RPB1) indicating a specific regulation of the Pax4 gene.
(§1) Total RNA from 200 to 400 islets growing in wells with 4 cm^2 surface area of a tissue culture dish was isolated according to instruction of the manufacturer of Trizol™ reagent. To further purify the RNA and to remove remaining DNA contaminations RNA was treated with the Qiagen RNAeasy kit according to the instructions of the manufacturer (Qiagen) and about 1 μg was converted into cDNA. Primers for pax4, 18S RNA, and rat RNA polymerase II largest subunit (RPB1) were designed using the Primer Express 1.5 Software from Applied Biosystems. Quantitative real-time PCR was performed using Applied Biosystems SDS 7000 detection system. Amplifications from at least 2 independent experiments were performed in duplicate for each transcript and mean values were normalized to the mean value of the reference RNA 18S RNA.
Rat islets were isolated from Wistar rats and cultured as described (Brun et al., 2004, JCB; 167: 1123-1135). In brief, 10 ml ice-cold liberase solution (Roche) was injected into the pancreas via the common bile duct. After dissection the pancreas was incubated for 40 minutes at 37° C. and then further dissociated by repeated pipetting using a 10 ml pipette. Islets were isolated by applying digested tissue to a ficoll-gradient before they were manually picked using a stereomicroscope. Islets were placed in bacteriological wells and compounds were administered as indicated. Islets were harvested in Trizol™ and immediately transferred to dry ice. The samples were stored at −20° C. until RNA isolation was carried out.

[2] = test system: Pax4; assay: Pax4 transcription in INS-1E insulinoma cells, quantitative RT-PCR; format: cell-based, rat; settings: INS-1E cells; for stimulation of Pax4 transcription relative to activin A (in words): FIG. 16
Source text: The response of the Pax4 gene to test compounds was investigated in the rat insulinoma cell line INS-1E. INS-1E cells are known to express Pax4 and to upregulate Pax4 levels in response to the treatment with activin-A and betacellulin. In the search for novel beta cell mitogens and/or beta cell protective agents the inventors treated INS-1E cells with different test compounds.
as §1, with “8×10^4 cells” for “200 to 400 islets”, “on” for “in wells with”, “extracted using” for “isolated according to instruction of the manufacturer of Trizol™ reagent. To further purify the RNA and to remove remaining DNA contaminations RNA was treated with the”, “2” for “about 1”, “Biosystems and sequences can be obtained upon request.” for “Biosystems.”, “from” for “from at least”
Cells were seeded at a density of 2×10^4 cells per cm^2 6 to 8 days before the treatment with chemicals. During the growth period the medium was changed once. The cells were incubated for different periods of time with chemicals under serum-free conditions. The cells were harvested in Qiagen RNAeasy cell lysate buffer and immediately transferred to dry ice. The samples were stored at −20° C. until RNA isolation was carried out.
Cells were seeded at a density of 2×10^4 cells per cm^2 6 to 8 days before the treatment with chemicals. During the growth period the medium was changed once. The cells were incubated for different periods of time with chemicals under serum-free conditions. The cells were harvested in Qiagen RNA easy cell lysate buffer and immediately transferred to dry ice. The samples were stored at −20 degree until RNA isolation was carried out.

[3] = test system: INS-1E cells; assay: Protection against apoptotic signals, nucleosomal fragmentation (cell death detection ELISA) and morphology; format: cell-based, rat
Experimental: FIG. 7: Determination of cytokine or high glucose and fatty acid induced Nucleosomal-fragmentation in INS-1 cells. To induce apoptosis INS-1 cells were exposed to the cytokines IL-1 beta at 4 ng/ml and IFN-gamma at 1 U/ml (Cyt. in figure A) or glucose at […] and palmitate at […] (Pal/Gluc in figure B) for 24 hours. 1 hour before the application of these reagents indicated cell samples were treated with 10 μM 1-Azakenpaullone (AzaP) or 15 μM NG-monomethyl-L-arginine monoacetate (L-NMMA) an inhibitor of the inducible nitric oxide synthase (iNOS). Apoptosis was assessed by determination of nucleosomal accumulation in the cytosolic extracts using a cell death detection ELISA kit. Nucleosomal release is expressed relative to untreated control cells (Co.).
FIG. 8: Cell morphology of treated cells was inspected by light microscopy. Cell morphologies of untreated (A), Pal/Gluc (B) and Pal/Gluc+AzaP (C) treated cells are shown.
The beta cell line INS-1E was used to investigate anti-apototic effects of the compounds of the invention on beta cells. Apotosis was induced by culturing cells with a cytokine combination (interleukine-1beta/interferon gamma) or with high concentrations of both glucose and palmitate. 1-Azakenpaullone strongly (60%) inhibited cytokine-induced apoptosis (FIG. 7A), with a weaker effect (25%) against glucolipotoxicity induced apoptosis (FIG. 7B). The state of the treated and untreated cells was analyzed by microscopy.
INS-1E cells were cultured as described (Merglen et al., (2004) Endocrinology; 145: 667-678). Cells were seeded at a density of 1×10^4 cells per 96-well in 96 well plates in 200 μl culture medium for 3 days. Then, cells were cultured for 1 day in 100 μl medium containing 1% FCS and 5 mM glucose. […] The rate of apoptosis was measured by the specific determination of mono- and oligonucleosomes in the cytoplasmic fraction of cell lysates using a cell death detection ELISA kit (ROCHE Cat. No. 1774425). The assay is based on a quantitative sandwich-enzyme-immunoassay-principle using mouse monoclonal anti-histone and anti-DNA peroxidase antibodies. […]

[4] = test system: primary rat beta cells; assay: In vitro beta cell proliferation assay (Ki-67 / C-peptide staining of dispersed islets); format: cell-based; settings: incubation 72 hours; for replication of primary rat beta cells, agent alone: FIG. 12, FIG. 14
Experimental: About 1.5×10^4 beta cells were inspected per experiment and the percentage of double positive cells was determined. The number of replicating beta cells is expressed relative to control cells maintained in 10% FCS (FIG. 9A). Prolactin treated cells served as a technical control. Identification of C-peptide and Ki67 double positive beta cells dispersed on adhesive slides was carried out by immunohistochemistry (FIG. 9B).
We investigated the growth promoting effects by monitoring the percentage of replicating beta cells in isolated rat islets. Replicating beta cells were identified by immunohistological staining of dispersed islets with antibodies against C-peptide, a fragment of proinsulin, and the cell division marker Ki-67.
Islets of Langerhans are isolated by standard Liberase digestion method from rat pancreata (Liberase™ Cl enzyme blend BMB Cat. # 1814-435, ROCHE).
Following the culture period the islets are dispersed gently by titration in Ca^2+ and Mg^2+ free PBS. […] The adherent islet cells are fixed and stained by standard immunofluorescence techniques for C-peptide, a fragment of proinsulin and Ki-67 a marker of proliferating cells.
An Olympus microscope equipped with an automatic image acquisition device (Olympus) is used for counting of C-peptide positive beta cells. Proliferating C-peptide/Ki-67 double positive beta cells are counted manually. Thereby the fraction of proliferating beta cells can be determined.

## O=C1Cc2c([nH]c3ccc(Br)cc23)-c2ncccc2N1 [1-Azakenpaullone]
[1]
  Pax4 RNA levels compared with technical control activin-A: induces higher Pax4 RNA levels than activin-A
  time course of Pax4 RNA levels: transiently up-regulates Pax4 RNA levels
[2]; 3 μM
  induction of relative Pax4 expression: about 6 fold
[3]; INS-1E exposed to toxic agents (Pal/Gluc), FIG. 8
  cell morphology by microscopy, signs of cell death: partially antagonizes this effect
[3]; INS-1E, glucose at 25 nM and palmitate at 0.04 nM for 24 hours, 10 μM compound 1 hour before, FIG. 7B
  inhibition of glucolipotoxicity induced apoptosis: 25%
[3]; Rattus norvegicus, INS-1E, IL-1 beta 4 ng/ml and IFN-gamma 1 U/ml for 24 hours, 10 μM compound 1 hour before, FIG. 7A, read-out: inhibition of cytokine-induced apoptosis
  inhibition at 10 µM: 60%

## CC(=O)O/N=C1/C(=C2/C(=O)Nc3cc(Br)ccc32)Nc2ccccc21 [(2′Z,3′ E)-6-Bromoindirubin-3′-acetoxime]
[2]
  induction of Pax4 expression (in words): induction of Pax4 expression was also found

## O=C1Nc2cc(Br)ccc2/C1=C1/Nc2ccccc2/C1=N\O [(2′Z,3′E)-6-Bromoindirubin-3′-oxime]
[2]
  induction of Pax4 expression (in words): induction of Pax4 expression was also found

## O=C1Cc2c([nH]c3ccc([N+](=O)[O-])cc23)-c2ccccc2N1 [Alsterpaullone]
[2]; 20 μM
  induction of relative Pax4 expression compared to the control: about 7 fold

## Cc1c[nH]c(-c2cnc(NCCNc3ccc(C#N)cn3)nc2-c2ccc(Cl)cc2Cl)n1 [CHIR99021]
[4]
  replication of primary rat beta cells, agent alone: trigger beta cell replication; also recorded: promotes replication of primary rat beta cells

## COc1ccc(CNC(=O)Nc2ncc([N+](=O)[O-])s2)cc1 [GSK-3 inhibitor VIII, N-(4-Methoxybenzyl)-N′-(5-nitro-1,3-thiazol-2-yl)urea]
[2]
  induction of Pax4 expression (in words): induction of Pax4 expression was also found

## GIP: incretin GIP (gastrin inhibitory protein) (YAEGTFISDYSIAMDKIHQQDFVNWLLAQKGKKNDWKHNITQ; Gastric inhibitory polypeptide; UniProt P09681 52-93, looked up)
[4]
  replication of primary rat beta cells, agent alone: trigger beta cell replication
[4]; FIG. 14
  replication of primary rat beta cells, GIP combined with GSK3 inhibitor CHIR99021: cooperative effects

## NGF: nerve growth factor
[4]; FIG. 12
  replication of primary rat beta cells, growth factor combined with GSK3 inhibitor 1-Azakenpaullone: potentiate the growth promoting effects
[4]
  replication of primary rat beta cells, agent alone: not sufficient to trigger beta cell replication

## exendin-4
[4]
  replication of primary rat beta cells, agent alone: trigger beta cell replication

B1: BMP 4: TGF-beta family member (protein, UniProt P12644 293-408, looked up)
Bone morphogenetic protein 4: SPKHHSQRARKKNKNCRRHSLYVDFSDVGWNDWIVAPPGYQAFYCHGDCPFPLADHLNSTNHAIVQTLVNSVNSSIPKACCVPTELSAISMLYLDEYDKVVLKNYQEMVVEGCGCR
[2]
  stimulation of Pax4 transcription relative to activin A (in words): hardly induced Pax4 gene transcription

B2: BMP 7: TGF-beta family member (protein, UniProt P18075 293-431, looked up)
Bone morphogenetic protein 7: STGSKQRSQNRSKTPKNQEALRMANVAENSSSDQRQACKKHELYVSFRDLGWQDWIIAPEGYAAYYCEGECAFPLNSYMNATNHAIVQTLVHFINPETVPKPCCAPTQLNAISVLYFDDSSNVILKKYRNMVVRACGCH
[2]
  stimulation of Pax4 transcription relative to activin A (in words): hardly induced Pax4 gene transcription

B3: activin-A: technical control previously shown to activate Pax4 transcription in rat islets (protein, UniProt P08476 311-426, looked up)
Inhibin beta A chain: GLECDGKVNICCKKQFFVSFKDIGWNDWIIAPSGYHANYCEGECPSHIAGTSGSSLSFHSTVINHYRMRGHSPFANLKSCCVPTKLRPMSMLYYDDGQNIIKKDIQNMIVEECGCS
modifications: Inhibin beta A chain
[1]
  time course of Pax4 RNA levels: more sustained increase in Pax4 RNA levels

B4: activin AB: protein related to activin A (protein, UniProt P08476 311-426; P09529 293-407, looked up)
Inhibin beta A chain: B3 Inhibin beta A chain
Inhibin beta B chain: GLECDGRTNLCCRQQFFIDFRLIGWNDWIIAPTGYYGNYCEGSCPAYLAGVPGSASSFHTAVVNQYRMRGLNPGTVNSCCIPTKLSTMSMLYFDDEYNIVKRDVPNMIVEECGCA
[2]
  stimulation of Pax4 transcription relative to activin A (in words): almost equally potent in stimulating Pax4 transcription as activin A

B5: betacellulin: growth factor (protein, UniProt P35070 32-111, looked up)
Betacellulin: DGNSTRSPETNGLLCGDPEENCAATTTQSKRKGHFSRCPKQYKHYCIKGRCRFVVAEQTPSCVCDEGYIGARCERVDLFY
modifications: Betacellulin
notes: growth factor
[4]
  replication of primary rat beta cells, agent alone: does not influence replication of primary rat beta cells
